Assay results from PubChem BioAssay AID1918955 (Molecular Pharmacology Branch, DTP, NCI, 2023).

System: NCI/ADR-RES complex spheroid viability
Test: Anticancer human tumor NCI/ADR-RES cell line growth inhibition;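 note: spheroids exposed to compounds for 7 days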;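 for viability, T/C: 100% = DMSO vehicle treated spheroids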
Conditions: for IC50: curve of first compound; for viability, T/C: stronger effect = lower value
Procedure, shortened: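 Multicellular complex spheroids of tumor cells with human endothelial cells (HUVEC) and mesenchymal stem cells; the LSD1 inhibitor iadademstat was combined with standard-of-care or investigational agents. Top concentration at or near clinical Cmax, half-log dilutions; final DMSO ≤0.25%.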

[1] = second compound 0.1 µM, first compound 0.00949 µM
[2] = second compound 0.1 µM, first compound 0.03 µM
[3] = second compound 0.1 µM, first compound 0.0949 µM
[4] = second compound 0.1 µM, first compound 0.3 µM
[5] = second compound 0.1 µM, first compound 0.949 µM
[6] = second compound 0.1 µM, first compound 3 µM
[7] = second compound 0.316 µM, first compound 0.00949 µM
[8] = second compound 0.316 µM, first compound 0.03 µM
[9] = second compound 0.316 µM, first compound 0.0949 µM
[10] = second compound 0.316 µM, first compound 0.3 µM
[11] = second compound 0.316 µM, first compound 0.949 µM
[12] = second compound 0.316 µM, first compound 3 µM
[13] = second compound 1 µM, first compound 0.00949 µM
[14] = second compound 1 µM, first compound 0.03 µM
[15] = second compound 1 µM, first compound 0.0949 µM
[16] = second compound 1 µM, first compound 0.3 µM
[17] = second compound 1 µM, first compound 0.949 µM
[18] = second compound 1 µM, first compound 3 µM
[19] = second compound 3.16 µM, first compound 0.00949 µM
[20] = second compound 3.16 µM, first compound 0.03 µM
[21] = second compound 3.16 µM, first compound 0.0949 µM
[22] = second compound 3.16 µM, first compound 0.3 µM
[23] = second compound 3.16 µM, first compound 0.949 µM
[24] = second compound 3.16 µM, first compound 3 µM
[25] = second compound 10 µM, first compound 0.00949 µM
[26] = second compound 10 µM, first compound 0.03 µM
[27] = second compound 10 µM, first compound 0.0949 µM
[28] = second compound 10 µM, first compound 0.3 µM
[29] = second compound 10 µM, first compound 0.949 µM
[30] = second compound 10 µM, first compound 3 µM

## Cn1ncnc1C1c2n[nH]c(=O)c3cc(F)cc(c23)NC1c1ccc(F)cc1 (stereo not given) + NC1CCC(NC2CC2c2ccccc2)CC1
Second compound 0.1 µM
  IC50: > 100 nM
Second compound 0.316 µM
  IC50: > 100 nM
Second compound 1 µM
  IC50: > 100 nM
Second compound 3.16 µM
  IC50: > 100 nM
Second compound 10 µM
  IC50: > 100 nM
Second compound 0.1 µM, first compound 0.000316 µM
  viability, T/C: 110%
Second compound 0.1 µM, first compound 0.001 µM
  viability, T/C: 108%
Second compound 0.1 µM, first compound 0.00316 µM
  viability, T/C: 110%
Second compound 0.1 µM, first compound 0.01 µM
  viability, T/C: 103%
Second compound 0.1 µM, first compound 0.0316 µM
  viability, T/C: 103%
Second compound 0.1 µM, first compound 0.1 µM
  viability, T/C: 96.6%
Second compound 0.316 µM, first compound 0.000316 µM
  viability, T/C: 109%
Second compound 0.316 µM, first compound 0.001 µM
  viability, T/C: 106%
Second compound 0.316 µM, first compound 0.00316 µM
  viability, T/C: 102%
Second compound 0.316 µM, first compound 0.01 µM
  viability, T/C: 102%
Second compound 0.316 µM, first compound 0.0316 µM
  viability, T/C: 104%
Second compound 0.316 µM, first compound 0.1 µM
  viability, T/C: 103%
Second compound 1 µM, first compound 0.000316 µM
  viability, T/C: 105%
Second compound 1 µM, first compound 0.001 µM
  viability, T/C: 109%
Second compound 1 µM, first compound 0.00316 µM
  viability, T/C: 105%
Second compound 1 µM, first compound 0.01 µM
  viability, T/C: 104%
Second compound 1 µM, first compound 0.0316 µM
  viability, T/C: 102%
Second compound 1 µM, first compound 0.1 µM
  viability, T/C: 98%
Second compound 3.16 µM, first compound 0.000316 µM
  viability, T/C: 106%
Second compound 3.16 µM, first compound 0.001 µM
  viability, T/C: 109%
Second compound 3.16 µM, first compound 0.00316 µM
  viability, T/C: 104%
Second compound 3.16 µM, first compound 0.01 µM
  viability, T/C: 109%
Second compound 3.16 µM, first compound 0.0316 µM
  viability, T/C: 101%
Second compound 3.16 µM, first compound 0.1 µM
  viability, T/C: 105%
Second compound 10 µM, first compound 0.000316 µM
  viability, T/C: 89.4%
Second compound 10 µM, first compound 0.001 µM
  viability, T/C: 95.9%
Second compound 10 µM, first compound 0.00316 µM
  viability, T/C: 102%
Second compound 10 µM, first compound 0.01 µM
  viability, T/C: 92.9%
Second compound 10 µM, first compound 0.0316 µM
  viability, T/C: 89.8%
Second compound 10 µM, first compound 0.1 µM
  viability, T/C: 84.5%

## NS(=O)(=O)OCC1CC(n2ccc3c(NC4CCc5ccccc54)ncnc32)CC1O (stereo not given) + NC1CCC(NC2CC2c2ccccc2)CC1
Second compound 0.1 µM
  IC50: 986 nM
Second compound 0.316 µM
  IC50: 890 nM
Second compound 1 µM
  IC50: 740 nM
Second compound 3.16 µM
  IC50: 660 nM
Second compound 10 µM
  IC50: 353 nM
[1]
  viability, T/C: 99.1%
[2]
  viability, T/C: 98.9%
[3]
  viability, T/C: 84.9%
[4]
  viability, T/C: 73.8%
[5]
  viability, T/C: 52.3%
[6]
  viability, T/C: 14.4%
[7]
  viability, T/C: 99.2%
[8]
  viability, T/C: 92.4%
[9]
  viability, T/C: 87.5%
[10]
  viability, T/C: 74.7%
[11]
  viability, T/C: 47.9%
[12]
  viability, T/C: 15.7%
[13]
  viability, T/C: 109%
[14]
  viability, T/C: 95.6%
[15]
  viability, T/C: 86.5%
[16]
  viability, T/C: 70.3%
[17]
  viability, T/C: 43.3%
[18]
  viability, T/C: 16.8%
[19]
  viability, T/C: 93.6%
[20]
  viability, T/C: 93%
[21]
  viability, T/C: 86.2%
[22]
  viability, T/C: 70.8%
[23]
  viability, T/C: 40.4%
[24]
  viability, T/C: 20.4%
[25]
  viability, T/C: 87.3%
[26]
  viability, T/C: 86.8%
[27]
  viability, T/C: 73.8%
[28]
  viability, T/C: 50.5%
[29]
  viability, T/C: 31.3%
[30]
  viability, T/C: 7.61%

## O=C(C=Cc1cccc(S(=O)(=O)Nc2ccccc2)c1)NO + NC1CCC(NC2CC2c2ccccc2)CC1
Second compound 0.1 µM
  IC50: 82.2 nM
Second compound 0.316 µM
  IC50: 78.1 nM
Second compound 1 µM
  IC50: 78.3 nM
Second compound 3.16 µM
  IC50: 76.7 nM
Second compound 10 µM
  IC50: 29.8 nM
[1]
  viability, T/C: 99.7%
[2]
  viability, T/C: 85.7%
[3]
  viability, T/C: 39.4%
[4]
  viability, T/C: 24.7%
[5]
  viability, T/C: 9.06%
[6]
  viability, T/C: 2.6%
[7]
  viability, T/C: 97.1%
[8]
  viability, T/C: 85.2%
[9]
  viability, T/C: 40.7%
[10]
  viability, T/C: 17.5%
[11]
  viability, T/C: 7.56%
[12]
  viability, T/C: 2.59%
[13]
  viability, T/C: 104%
[14]
  viability, T/C: 82%
[15]
  viability, T/C: 41.5%
[16]
  viability, T/C: 19.4%
[17]
  viability, T/C: 10.1%
[18]
  viability, T/C: 1.53%
[19]
  viability, T/C: 95.6%
[20]
  viability, T/C: 78.7%
[21]
  viability, T/C: 42.9%
[22]
  viability, T/C: 17.8%
[23]
  viability, T/C: 8.22%
[24]
  viability, T/C: 5.29%
[25]
  viability, T/C: 75.2%
[26]
  viability, T/C: 47.6%
[27]
  viability, T/C: 34.4%
[28]
  viability, T/C: 16.6%
[29]
  viability, T/C: 6.54%
[30]
  viability, T/C: 6.09%
